Measured values: paper PMC8780978, “Antiplatelet and Antithrombotic Effects of Isaridin E Isolated from the Marine-Derived Fungus via Downregulating the PI3K/Akt Signaling Pathway” (Marine Drugs, 2021)
Where a SMILES comes first, the peptide text is derived from it. [ ]: non-standard residue; d: D form. ξ: configuration not given here. ξLac(3-iPr) = CC(C)CC(O)C(=O)O; NMeV = CN[C@H](C(=O)O)C(C)C; βAla = NCCC(=O)O

How the values were obtained:
human neutrophils = system: human neutrophils; design: method as in PMID 23822585; settings: cited from earlier work
washed mouse platelets [1] = assay: ADP-induced platelet aggregation (light transmission aggregometry); type: cell-based; settings: ADP 5 μM; for ADP-induced maximum platelet aggregation, % of vehicle control: 30 min pretreatment
Experimental: (§1) Washed platelets were prepared as previously described by Zhongren Ding et al.. Whole blood was collected from the abdominal aorta using a syringe containing 3.8% sodium citrate (9:1, V/V) as an anticoagulant. Citrated blood (2 mL) was centrifuged at room temperature at 300× g for 2 min to obtain platelet-rich plasma (PRP). Platelets were obtained by the further centrifugation of PRP at 700× g for 2 min, and resuspended in Tyrode’s buffer (138 mM of NaCl, 2.7 mM of KCl, 1 mM of MgCl2, 3 mM of NaH2PO4, 5 mM of glucose, 10 mM of HEPES, pH 7.4) with 0.02 U/mL apyrase (A6410, Sigma-Aldrich, St. Louis, MO, USA) to a density of 3 × 10^8 of platelets/mL for use.
(§2) The platelet aggregation and release assay were performed as previously reported. Washed mouse platelets were treated with isaridin E (6.25, 12.5, 25, 50, 100, or 200 μM) or vehicle or clopidogrel (20 μM) at 37 °C for 30 min, followed by stimulation with ADP (01905, Sigma-Aldrich, St. Louis, MO, USA, 5 μM), collagen (C7661, Sigma-Aldrich, St. Louis, MO, USA, 1 μg/mL) or thrombin (T6884, Sigma-Aldrich, St. Louis, MO, USA, 0.02 U/mL). The platelet aggregation was assessed using a lumi-aggregometer (700-2, Chrono-Log, Havertown, PA, USA) with a stirring speed of 1200 rpm at 37 °C. The release of ATP was simultaneously monitored using Luciferin/luciferase reagent (395, Chrono-Log, Havertown, PA, USA). Aggregation traces and ATP release traces were monitored continuously for at least 10 min.

washed mouse platelets [2] = assay: Collagen-induced platelet aggregation; type: cell-based; settings: collagen 1 μg/mL, p > 0.05
Experimental: as §1
(§3) The platelet aggregation and release assay were performed as previously reported. […] The platelet aggregation was assessed using a lumi-aggregometer (700-2, Chrono-Log, Havertown, PA, USA) with a stirring speed of 1200 rpm at 37 °C. The release of ATP was simultaneously monitored using Luciferin/luciferase reagent (395, Chrono-Log, Havertown, PA, USA). Aggregation traces and ATP release traces were monitored continuously for at least 10 min.

Tail-bleeding assay = settings: for tail bleeding time versus vehicle control: single intragastric dose 3 h before, n = 5 mice
Experimental: Mice were assigned randomly to […] and intragastrically administrated with a single dose of vehicle, isaridin E (12.5, 25, 50, or 100 mg/kg), or clopidogrel (10 mg/kg) at 3 h before the cutting-tail experiment. Tails were transected at a distal margin of 5 mm and were immediately immersed into 10 mL of saline at 37 °C. The bleeding time was recorded as when the observed bleeding ceased.

washed mouse platelets [3] = assay: Thrombin-induced platelet aggregation; type: cell-based; settings: thrombin 0.02 U/mL, p > 0.05
Experimental: as §1, §3

washed mouse platelets [4] = assay: ADP-induced platelet ATP release (luciferin/luciferase); type: cell-based; settings: ADP 5 μM
Experimental: as §1, §2

[5] = Coagulation parameters (APTT, PT, TT, FIB) after single intragastric dose; type: in vivo, mice; settings: 3 h
Experimental: (§4) Mice were intragastrically administrated with a single dose of isaridin E (100 mg/kg) or vehicle at 3 h before anesthesia. Whole blood was drawn from the abdominal aorta and collected in K2EDTA anticoagulant tubes to evaluate the hematologic parameters with an automatic hematology analyzer (BC-2800 vet, Mindray, Shenzhen, China). The citrated blood was centrifuged at 1500× g (25 °C) for 15 min to obtain the platelet-poor plasma (PPP). PPP was then used to measure the coagulation parameters, including ATPP, PT, TT, and FIB, with an automated coagulation analyzer (RAC-030, Rayto, Shenzhen, China).

PI3K = assay: ADP-induced phosphorylation of PI3K, Western blot; type: cell-based, human; settings: 50 μM, Meg-01 cells
Experimental: (§5) Western blotting was performed as described in our previous study. Meg-01 cells were lysed with protein lysis buffer (P0013, Beyotime Biotechnology, Haimen, China) containing a protease inhibitor cocktail (539131, Millipore, Billerica, MA, USA) and phosphatase inhibitor cocktail (K1012, APExBIO, Houston, TX, USA). The samples (20 μg) were then separated by 8% SDS-PAGE gel and transferred onto PVDF membranes. The PDVF membranes were incubated with primary antibodies at 4 °C for 12 h. After incubating with the appropriate HRP-conjugated secondary antibodies (7076, 7074, Cell Signaling Technology, Danvers, MA, USA), blots were detected with chemiluminescent HRP substrate (P90719, Millipore, Billerica, MA, USA) using the ChemiDoc XRS+ system (BIO-RAD, Hercules, CA, USA). Primary antibodies against the following antigens were listed: PI3K (4257, Cell Signaling Technology, Danvers, MA, USA), Phospho-PI3K (ab226842, Abcam, Cambridge, UK), Akt (4691, Cell Signaling Technology, Danvers, MA, USA), Phospho-Akt (4056, Cell Signaling Technology, Danvers, MA, USA), and β-actin (66009-1, Proteintech, Rosemont, IL, USA).

[6] = FeCl3-induced carotid artery thrombosis mouse model; type: in vivo, C57BL/6J mice
Experimental: The mouse model of carotid artery thrombosis induced by FeCl3 injury was performed and monitored by a stereoscopic fluorescence microscope as previously described. […] Mice were then anesthetized with a single dose of sodium pentobarbital (60 mg/kg, i.p., Sigma-Aldrich, St. Louis, MO, USA). Rhodamine 6G (83697, Sigma-Aldrich, St. Louis, MO, USA; 0.5 mg/mL) was injected into the right jugular vein to label platelets. The carotid artery (CA) was carefully exposed, and a black "U"-shaped plastic (3 mm) was inserted under the CA gently to block background fluorescence. Filter papers (1 × 2 mm) with 7.5% saturated FeCl3 solution were applied topically for 1 min, and thrombus formation in the injured CA was recorded in real time using a stereoscopic fluorescence microscope (M205FA, Leica, Wetzlar, Germany) for 12 min.

[7] = design: method as in PMID 21438588; settings: cited from earlier work
washed mouse platelets [8] = assay: LDH (lactate dehydrogenase) release cytotoxicity assay; type: cell-based; settings: for LDH Release (%): 37 °C, 30 min, n = 6
Excerpt: We first examined whether isaridin E has cytotoxic effects on washed mouse circulating platelets using the LDH (lactate dehydrogenase) cytotoxicity assay kit. Destruction of the cell membrane caused by apoptosis or necrosis leads to the release of enzymes in the cytoplasm into the culture medium, including LDH, with stable enzyme activity. Therefore, the quantitative analysis of the percentage of LDH leakage from the platelets is commonly used to evaluate the cytotoxic effects of tested compounds, and LDH > 10% was considered cytotoxic. […] Next, we tested whether treatment with isaridin E for 3 h (a single intragastric administration at 100 mg/kg) affects hematological and coagulation parameters in vivo.
as §1
The possible cytotoxic effect of isaridin E on mouse platelets was assessed with the LDH Cytotoxicity Assay Kit (C0016, Beyotime Biotechnology, Haimen, China). Washed mouse platelets were pretreated with vehicle or different concentrations of isaridin E ([…], 12.5, 25, 50, 100, 200, or 400 μM) at 37 °C for 30 min, and then collected for detection following the manufacturer’s instructions. The cytotoxic effects were determined using the percentage of LDH leakage released from the platelets (% LDH release).

Akt = assay: ADP-induced phosphorylation of Akt, Western blot; type: cell-based, human; settings: 50 μM, Meg-01 cells
Experimental: as §5

washed mouse platelets [9] = assay: ADP-induced platelet activation, CD62p surface expression by flow cytometry; type: cell-based; settings: 30 min, then 50 μM ADP 5 min, vehicle 35.6 ± 1.7%
Experimental: as §1
Washed mouse platelets were pretreated with vehicle or different concentrations of isaridin E for 30 min at 37 °C, followed by stimulation with 50 μM ADP for 5 min. Platelets were then stained with FITC-conjugated anti-CD41 antibody (133904, Biolegend, San Diego, CA, USA) and PE-conjugated anti-CD62p antibody (148306, Biolegend, San Diego, CA, USA) for 20 min at 25 °C in the dark. Then, platelets were fixed in 1% paraformaldehyde solution and analyzed with a CytoFLEX flow cytometer (Beckman Coulter, Brea, CA, USA).

[10] = Hematologic parameters after single intragastric dose; type: in vivo, mice; settings: 3 h
Experimental: as §4

[11] = 100 mg/kg single intragastric administration
[12] = 100 mg/kg single oral gavage, n = 5 mice
[13] = 100 mg/kg single gavage, n=5 mice

## CC(C)CC1OC(=O)CCNC(=O)[C@H](C(C)C)N(C)C(=O)[C@H](C(C)C)N(C)C(=O)[C@H](Cc2ccccc2)NC(=O)[C@@H]2CCCN2C1=O (stereo partly drawn) [Isaridin E, cyclo-[(OH) (S)-HMPA^1-L-Pro^2-L-Phe^3-N-Me-L-Val^4-N-Me-L-Val^5-β-Ala^6(CO)]] (cyclo(F[NMeV][NMeV][βAla][ξLac(3-iPr)]P))
Human neutrophils
  cytotoxicity in human neutrophils: without cytotoxicity
Human neutrophils; human neutrophils
  elastase release induced by FMLP: inhibiting
  superoxide anion generation induced by FMLP: inhibiting
Washed mouse platelets [1]; 12.5 μM
  ADP-induced maximum platelet aggregation, % of vehicle control: 75.6 ± 2.6%
Washed mouse platelets [1]; 25 μM
  ADP-induced maximum platelet aggregation, % of vehicle control: 55.7 ± 4.8%
Washed mouse platelets [1]; 50 μM
  ADP-induced maximum platelet aggregation, % of vehicle control: 26.6 ± 3.5%
Washed mouse platelets [1]; 50 μM, extent similar to clopidogrel (20 μM)
  reduction of ADP-induced platelet aggregation versus vehicle control: 73.4 ± 3.5%
Washed mouse platelets [1]; 100 μM
  ADP-induced maximum platelet aggregation, % of vehicle control: 15.6 ± 2.9%
Washed mouse platelets [1]; 200 μM
  ADP-induced maximum platelet aggregation, % of vehicle control: 8.1 ± 0.8%
Washed mouse platelets [1]; Mus musculus, Platelet, read-out: IC50 inhibiting ADP-induced platelet aggregation
  IC50: 26.1 ± 2.9 µM
Washed mouse platelets [2]
  maximum platelet aggregation in response to collagen: no significant differences
Tail-bleeding assay; 12.5, 25, 50 or 100 mg/kg
  tail bleeding time versus vehicle control: no obvious effects
Tail-bleeding assay; isaridin E 12.5-100 mg/kg
  bleeding time compared with clopidogrel (10 mg/kg): significantly reduced
Washed mouse platelets [3]
  maximum platelet aggregation in response to thrombin: no significant differences
Washed mouse platelets [4]; 6.25 μM
  ADP-induced platelet ATP release, % of vehicle control: 60.7 ± 7.9%
Washed mouse platelets [4]; 12.5 μM
  ADP-induced platelet ATP release, % of vehicle control: 31.7 ± 4.8%
Washed mouse platelets [4]; Mus musculus, Platelet, read-out: IC50 inhibiting ADP-induced platelet ATP release
  IC50: 7.9 ± 1.1 µM
[5]; [11]
  effect on general coagulation (APTT, TT, PT, FIB): no obvious effects
[5]; [12]
  ATPP: 32.4 ± 1.0 s
  FIB (fibrinogen): 3.1 ± 0.1 g/L
  PT (prothrombin time): 12.1 ± 0.4 s
  TT (thrombin time): 14.0 ± 0.8 s
PI3K; 30 min, ADP 5 μM 5 min
  ADP-induced phosphorylation of PI3K: significantly suppressed
PI3K
  total protein expression of PI3K: without altering
[6]; 12.5, 25, 50, or 100 mg/kg oral gavage at 1, 24, 48 h before FeCl3 injury, at 12 min, dose-dependent
  maximum thrombus size: reduced
[6]; 12.5, 25, 50, or 100 mg/kg oral gavage at 1, 24, 48 h before FeCl3 injury, dose-dependent
  time to the first thrombus formation: significantly prolonged
[6]; 50 or 100 mg/kg
  antithrombotic effects relative to clopidogrel at 10 mg/kg: comparable to that of clopidogrel
[7]
  insecticidal activity: insecticidal activity
Washed mouse platelets [8]; 6.25-400 μM, LDH > 10% considered cytotoxic
  cytotoxicity on washed platelets: no obvious cytotoxicity
Washed mouse platelets [8]; isaridin E 6.25 μM
  LDH Release (%): 0.86 ± 0.03%
Washed mouse platelets [8]; isaridin E 12.5 μM
  LDH Release (%): 0.89 ± 0.04%
Washed mouse platelets [8]; isaridin E 25 μM
  LDH Release (%): 0.88 ± 0.03%
Washed mouse platelets [8]; isaridin E 50 μM
  LDH Release (%): 0.86 ± 0.03%
Washed mouse platelets [8]; isaridin E 100 μM
  LDH Release (%): 0.88 ± 0.04%
Washed mouse platelets [8]; isaridin E 200 μM
  LDH Release (%): 0.84 ± 0.02%
Washed mouse platelets [8]; isaridin E 400 μM
  LDH Release (%): 0.85 ± 0.02%
Akt; 30 min, ADP 5 μM 5 min
  ADP-induced phosphorylation of Akt: significantly suppressed
Akt
  total protein expression of Akt: without altering
Washed mouse platelets [9]; 25 μM
  percentage of CD62p expression on the platelet surface: 29.6 ± 1.0%
Washed mouse platelets [9]; 50 μM
  percentage of CD62p expression on the platelet surface: 16.0 ± 1.4%
Washed mouse platelets [9]; 100 μM
  percentage of CD62p expression on the platelet surface: 8.4 ± 1.0%
[10]; [13]
  HCT (hematocrit): 39.5 ± 1.4%
  LY % (lymphocyte percentage): 83.1 ± 2.5%
  MCH (mean red blood cell hemoglobin): 17.3 ± 0.4 pg
  MCHC (mean red blood cell hemoglobin concentration): 330 ± 8 g/L
  MCV (mean red blood cell volume): 51.1 ± 0.8 fL
  MO % (monocyte percentage): 2.7 ± 0.6%
  MPV (mean platelet volume): 5.3 ± 0.3 fL
  NE % (neutrophil percentage): 14.8 ± 2.2%
  PLT (platelet count): 1233 ± 65 10^9/L
  RBC (red blood cell): 7.8 ± 0.3 10^12/L
  RDW (red cell distribution width): 15.2 ± 0.5%
  WBC (white blood cell): 3.3 ± 0.5 10^9/L
[10]; [11]
  hematological parameters versus NS- and vehicle-treated groups: no significant differences

## COC(=O)[C@H](c1ccccc1Cl)N1CCc2sccc2C1 [clopidogrel, reference compound]
Tail-bleeding assay; 10 mg/kg
  tail bleeding time versus vehicle control: significantly increased
